# Results published in patent US20030158403A1, “Nuclease resistant chimeric oligonucleotides” (ISIS Pharmaceuticals, Inc., priority 2001, published 2003).
# In the oligonucleotide strings, read from the 5' end, every base follows the letter of its sugar. An asterisk marks phosphorothioate; unmarked linkages are phosphodiester. Other units and linkages are bracketed, terminal groups are in braces. A string of capitals states the bases alone. [L-DNA] = L-2'-deoxythymidine (L-thymidine); d = 2'-deoxy (DNA)
# Legend:
# Target RNA = assay: Tm values of L-thymidine modified oligonucleotides against RNA; type: binding
# [1] = In vivo nuclease stability of L/D-oligonucleotide chimera, IV bolus, organs analyzed by CGE; details: 24 h after IV bolus, BalbC mouse
# Protocol: Here we report the in vivo nuclease stability of L/D-oligonucleotide chimera in mouse. We synthesized the phosphoramidite and CPG derived from L-thymidine, which was synthesized from a novel route [Jung, E. M.; Xu, Y. Tetrahedron Lett. 1997, 24, 4199-4202]. A 20 mer phosphorothioate oligonucleotide ISIS-120745 (antisense to mouse ICAM-1) was capped with L-2′-deoxy thymidine at 3′and 5′-positions. The oligonucleotide was then administered IV bolus into BalbC mouse. After 24 h. mouse was sacrificed and the oligonucleotide was isolated from different organs. Percentage of full-length oligonucleotide present in different organs were analyzed by CGE.
Substance,"Tm, Target RNA (Target RNA) [°C]",degradation in organs [1],ΔTm (Target RNA; relative to the unmodified parent oligonucleotide) [°C],intact full-length oligonucleotide isolated from all the major organs [1] [%]
"ISIS 5132: 5′ TCCCGCTGTGATGCATT 3′ (SEQ ID NO: 6), all P = S; unmodified counterpart of 121785 (dT*dC*dC*dC*dG*dC*dT*dG*dT*dG*dA*dT*dG*dC*dA*dT*dT)",60.6,,,
"ISIS 8651: TGCATCCCCCAGGCCACCAT (SEQ ID NO: 4), all P = S; unmodified counterpart of 120745 (dT*dG*dC*dA*dT*dC*dC*dC*dC*dC*dA*dG*dG*dC*dC*dA*dC*dC*dA*dT)",68.7,degraded completely,,
"ISIS 120745: 5′ T*GC ATC CCC CAG GCC ACC AT*3′; T* = L-Thymidine, all P = S; antisense to mouse ICAM-1 (antisense TGCATCCCCCAGGCCACCAT; sugars from the 5' end [L-DNA]1 d18 [L-DNA]1, all phosphorothioate, methylation of C not given here)",66.94,,−1.76,> 90
